Assay results reported in ChEMBL document CHEMBL5543140 (J Med Chem, 2024).
Calls of active or inactive are those of the source. No cut-off for these calls is given here.

Columns and labels:
[1] = biological target: T1, 5-hydroxytryptamine receptor 2C (Homo sapiens, UniProt P28335); experiment: Displacement of [3H]LSD from human 5-HT2C receptor expressed in HEK293 cell membrane incubated for 90 mins by microbeta liquid scintillation counting method; assay type: cell membranes
T1 sequence (P28335 whole entry): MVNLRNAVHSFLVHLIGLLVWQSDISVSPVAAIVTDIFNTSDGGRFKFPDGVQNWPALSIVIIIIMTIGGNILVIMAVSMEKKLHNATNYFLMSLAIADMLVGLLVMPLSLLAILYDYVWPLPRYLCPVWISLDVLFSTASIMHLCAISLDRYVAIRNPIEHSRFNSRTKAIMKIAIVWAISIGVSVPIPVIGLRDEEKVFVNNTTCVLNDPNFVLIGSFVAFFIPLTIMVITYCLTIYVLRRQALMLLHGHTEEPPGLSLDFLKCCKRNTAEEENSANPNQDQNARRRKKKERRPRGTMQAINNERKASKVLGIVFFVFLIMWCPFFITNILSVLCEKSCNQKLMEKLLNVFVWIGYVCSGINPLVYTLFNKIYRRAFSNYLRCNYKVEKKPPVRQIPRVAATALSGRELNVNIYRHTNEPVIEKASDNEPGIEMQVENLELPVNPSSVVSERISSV

[2] = tested on: Mus musculus; experiment: Psychedelic effect in C57BL/6J mouse assessed as number of head-twitch responses by visual observation at 3 mg/kg, po measured for 3 mins at 160 to 170 min; assay type: functional; settings: 0.05 h
[3] = organism: Homo sapiens; experiment: Selectivity ratio, ratio of Ki for human 5-HT2B receptor to human 5-HT2A receptor
[4] = biological target: 5-hydroxytryptamine receptor 3A (Homo sapiens) (UniProt P46098); experiment: Binding affinity to human 5-HT3 receptor (unknown origin) at 10 uM by radioligand displacement assay
[5] = biological target: T2, 5-hydroxytryptamine receptor 1A (Homo sapiens) (UniProt P08908); experiment: Agonist activity at human 5-HT1A receptor expressed in HEK293T cells co-transfected with 22F-Glosensor assessed as inhibition of cAMP production measured after 30 mins incubation by Microbeta2Micro-plate counter analysis; assay type: functional, cell-based; settings: filed as agonist
T2 sequence (whole entry): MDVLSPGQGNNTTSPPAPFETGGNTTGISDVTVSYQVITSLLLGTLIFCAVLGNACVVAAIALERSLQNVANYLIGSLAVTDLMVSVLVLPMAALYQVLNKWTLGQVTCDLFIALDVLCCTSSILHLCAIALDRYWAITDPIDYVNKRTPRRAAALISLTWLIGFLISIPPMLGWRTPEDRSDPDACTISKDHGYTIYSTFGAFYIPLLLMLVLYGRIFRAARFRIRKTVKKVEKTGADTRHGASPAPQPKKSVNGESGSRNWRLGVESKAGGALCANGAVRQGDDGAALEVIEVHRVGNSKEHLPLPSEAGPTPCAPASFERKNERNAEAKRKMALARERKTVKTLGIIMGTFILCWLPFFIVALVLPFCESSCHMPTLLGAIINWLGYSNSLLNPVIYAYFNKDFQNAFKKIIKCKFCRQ

[6] = tested on: Mus musculus; experiment: Psychedelic effect in sc dosed C57BL/6J mouse assessed as induction of 5-HT2A receptor dependent head-twitch responses by visual observation measured within 10 mins; assay type: functional, organism-based; settings: dose 0.1-3 mg/kg
[7] = Cmax in mouse C57BL/6J brain at 3 mg/kg, po measured after 1 hrs; assay type: ADME, organism-based
[8] = tested on: Mus musculus; experiment: Locomotor activity in C57BL/6J mouse assessed as distance traveled at 10 mg/kg, po measured for 15 to 25 mins (reference value: 1710 +/- 120 cm) by Ethovision tracking system; assay type: functional; settings: time 15-25 min
[9] = Ex vivo binding in C57BL/6J mouse brain frontal cortex assessed as inhibition of [3H]Cimbi-36 binding at 1 mg/kg, sc measured after 360 mins by liquid scintillation counting analysis (reference value: 0%); assay type: functional; settings: 6 h
[10] = tested on: Hippocampus; experiment: Induction of neuroplasticity in C57BL/6J mouse assessed as increase in Homer 1 mRNA expression in brain hippocampus at 3 mg/kg, sc single dose by RT-PCR analysis; assay type: functional, organism-based
[11] = tested on: Hippocampus; experiment: Induction of neuroplasticity in C57BL/6J mouse assessed as increase in c-Fos mRNA expression in brain hippocampus at 3 mg/kg, sc single dose by RT-PCR analysis; assay type: functional, organism-based
[12] = tested on: Mus musculus; experiment: Induction of neuroplasticity in C57BL/6J mouse assessed as increase in Homer1 mRNA expression in brain frontal cortex at 0.3 mg/kg, sc single dose by RT-PCR analysis; assay type: functional, organism-based
[13] = tested on: Hippocampus; experiment: Induction of neuroplasticity in C57BL/6J mouse assessed as increase in CREB1 mRNA expression in brain hippocampus at 0.3 mg/kg, sc single dose by RT-PCR analysis; assay type: functional, organism-based
[14] = tested on: Hippocampus; experiment: Induction of neuroplasticity in C57BL/6J mouse assessed as increase in c-Fos mRNA expression in brain hippocampus at 0.3 mg/kg, sc single dose by RT-PCR analysis; assay type: functional, organism-based
[15] = tested on: Hippocampus; experiment: Induction of neuroplasticity in C57BL/6J mouse assessed as increase in EGR2 mRNA expression in brain hippocampus at 0.3 mg/kg, sc single dose by RT-PCR analysis; assay type: functional, organism-based
[16] = Metabolic stability in rat liver microsomes assessed as half life at 1 uM incubated for 120 mins in presence of NADPH; assay type: ADME, Microsome
[17] = AUClast in Wistar rat plasma at 1 mg/kg, iv measured upto 48 hrs; assay type: ADME, organism-based
[18] = Half life in Wistar rat brain at 1 mg/kg, iv measured upto 48 hrs; assay type: ADME, organism-based
[19] = Initial plasma concentration in male Sprague-Dawley rat at 1 mg/kg, iv measured upto 8 hrs by LC-MS/MS analysis; assay type: ADME, organism-based
[20] = Half life in male Sprague-Dawley rat plasma at 1 mg/kg, iv measured upto 8 hrs by LC-MS/MS analysis; assay type: ADME, organism-based
[21] = AUCinf in male Sprague-Dawley rat plasma at 1 mg/kg, iv measured upto 8 hrs by LC-MS/MS analysis; assay type: ADME, organism-based
[22] = Volume of distribution at steady state in male Sprague-Dawley rat plasma at 1 mg/kg, iv measured upto 8 hrs by LC-MS/MS analysis; assay type: ADME, organism-based; settings: read-out: Vdss
[23] = Brain to plasma ratio in male Sprague-Dawley rat at 1 mg/kg, iv measured upto 8 hrs by LC-MS/MS analysis; assay type: ADME, organism-based; settings: brain and plasma, read-out: BPR
[24] = Cmax in male Sprague-Dawley rat CSF at 1 mg/kg, iv measured upto 8 hrs by LC-MS/MS analysis; assay type: ADME, organism-based, Cerebrospinal fluid
[25] = Half life in male Sprague-Dawley rat CSF at 1 mg/kg, iv measured upto 8 hrs by LC-MS/MS analysis; assay type: ADME, organism-based, Cerebrospinal fluid
[26] = AUCinf in male Sprague-Dawley rat CSF at 1 mg/kg, iv measured upto 8 hrs by LC-MS/MS analysis; assay type: ADME, organism-based, Cerebrospinal fluid
[27] = AUCinf in beagle dog at 0.4 mg/kg, iv measured upto 24 hrs; assay type: ADME, organism-based, Canis lupus familiaris; settings: in vivo
[28] = AUClast in beagle dog at 2 mg/kg, po measured upto 24 hrs; assay type: ADME, organism-based, Canis lupus familiaris; settings: in vivo
[29] = biological target: Alpha-2C adrenergic receptor (Homo sapiens, UniProt P18825); experiment: biochemical
Chain of Alpha-2C adrenergic receptor (P18825 whole entry): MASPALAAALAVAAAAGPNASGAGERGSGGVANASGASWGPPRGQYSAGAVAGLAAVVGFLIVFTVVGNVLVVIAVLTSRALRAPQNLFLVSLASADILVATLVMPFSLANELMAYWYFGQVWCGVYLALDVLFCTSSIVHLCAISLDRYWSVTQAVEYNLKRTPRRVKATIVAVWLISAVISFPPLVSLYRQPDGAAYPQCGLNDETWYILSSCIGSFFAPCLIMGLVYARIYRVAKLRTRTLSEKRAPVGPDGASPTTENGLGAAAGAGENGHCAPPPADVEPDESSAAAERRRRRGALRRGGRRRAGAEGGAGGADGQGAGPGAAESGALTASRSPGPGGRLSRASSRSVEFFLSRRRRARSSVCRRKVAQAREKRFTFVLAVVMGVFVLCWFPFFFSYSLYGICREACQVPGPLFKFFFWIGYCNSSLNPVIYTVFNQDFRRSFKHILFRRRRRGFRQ

Chain of 5-hydroxytryptamine receptor 3A (Homo sapiens) (P46098 whole entry): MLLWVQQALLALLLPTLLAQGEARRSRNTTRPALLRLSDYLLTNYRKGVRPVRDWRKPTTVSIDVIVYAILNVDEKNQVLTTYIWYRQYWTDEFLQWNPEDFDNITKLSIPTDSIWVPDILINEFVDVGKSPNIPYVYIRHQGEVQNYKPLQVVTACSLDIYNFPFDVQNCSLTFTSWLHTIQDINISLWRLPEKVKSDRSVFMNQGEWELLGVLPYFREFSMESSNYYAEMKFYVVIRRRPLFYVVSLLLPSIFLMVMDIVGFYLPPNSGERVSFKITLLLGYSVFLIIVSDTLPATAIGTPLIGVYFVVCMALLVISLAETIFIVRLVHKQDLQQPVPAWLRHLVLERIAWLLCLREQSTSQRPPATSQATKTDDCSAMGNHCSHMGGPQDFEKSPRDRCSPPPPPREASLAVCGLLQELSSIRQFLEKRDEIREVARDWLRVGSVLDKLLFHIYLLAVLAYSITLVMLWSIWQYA

COc1cc([Se]C(F)(F)F)c(OC)cc1CCN.Cl
Ki [1]: 0.095 µM
Activity [2]: 29
Ratio Ki [3]: 19
Activity [4]: inactive
Emax [5]: 95%
Activity [6]: Dose-Dependent Effect
Cmax [7]: 2370 ng/g
Activity [8]: 1974 cm
inhibition in vivo at 1 mg/kg [9]: 25%
Activity [10]: inactive
Activity [11]: inactive
Activity [12]: Active
Activity [13]: inactive
Activity [14]: inactive
Activity [15]: inactive
half-life at 1 µM [16]: 0.917 h
AUC(0-t) at 48 h [17]: 42.2 ng·h/mL
half-life [18]: 2.44 h
C0 at 8 h [19]: 330 ng/mL
half-life [20]: 1.53 h
AUC(0-inf) [21]: 210 ng·h/mL
Vd [22]: 5.67 L/kg
Kp at 8 h [23]: 15.6
Cmax [24]: 48.7 ng/mL
half-life [25]: 1.26 h
AUC(0-inf) [26]: 51.4 ng·h/mL
AUC(0-inf) [27]: 446 ng·h/mL
AUC(0-t) at 24 h [28]: 2720 ng·h/mL
Ki [29]: 0.108 µM
